Source: ChEMBL document CHEMBL1201862, “PubChem BioAssay data set” (2004)
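Where inhibition never reached the appropriate level, the endpoint shown equals the highest concentration tested. Otherwise, values were interpolated linearly from a five-concentration, 48-hour dose response in 96-well plates. Here, GI50 denotes the concentration required for 50% inhibition of growth.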 Calls of active or inactive are those of the source. Cut-off read from the data, not from the text of the source: active = GI50 up to about 1.1 µM and inactive = higher.

Tests used:
Assay in all cases: inhibition of tumour cell growth, NCI panel, 48 h
[1] = system: A549
[2] = system: MCF7
[3] = system: SR
[4] = system: UO-31
[5] = system: DU-145
[6] = system: T47D
[7] = system: NCI-H23
[8] = system: RPMI-8226
[9] = system: OVCAR-4
[10] = system: OVCAR-8
[11] = system: LOX IMVI
[12] = system: 786-0
[13] = system: NCI-H522
[14] = system: Malme-3M
[15] = system: U-251
[16] = system: MDA-MB-435
[17] = system: SK-MEL-28
[18] = system: COLO 205
[19] = system: MDA-N
[20] = system: HOP-62

| Structure (SMILES) | GI50 [1] | GI50 [2] | GI50 [3] | GI50 [4] | GI50 [5] | GI50 [6] | GI50 [7] | GI50 [8] | GI50 [9] | GI50 [10] | GI50 [11] | GI50 [12] | GI50 [13] | GI50 [14] | GI50 [15] | GI50 [16] | GI50 [17] | GI50 [18] | GI50 [19] | GI50 [20] |
| --- | --- | --- | --- | --- | --- | --- | --- | --- | --- | --- | --- | --- | --- | --- | --- | --- | --- | --- | --- | --- |
| CN(C)CCCn1c(Cc2ccc(Cl)cc2)nc2cc(C(F)(F)F)ccc21 | 18.2 µM (inactive) | 14.5 µM (inactive) | 15 µM (inactive) | 0.301 µM (active) | 14.1 µM (inactive) | 12 µM (inactive) | 15.8 µM (inactive) | 40.8 µM (inactive) | 13.6 µM (inactive) | 17.3 µM (inactive) | 14.5 µM (inactive) | 13.9 µM (inactive) | 14.6 µM (inactive) | 11 µM (inactive) | 15.3 µM (inactive) | 12.9 µM (inactive) | 17.9 µM (inactive) | 10.7 µM (inactive) | 12 µM (inactive) | 15.2 µM (inactive) |
| O=C1C(Cl)=C(Cl)C(=O)N1c1ccc(F)cc1 [FLUOROIMIDE] | 97.9 µM (inactive) | 20.7 µM (inactive) | 6.98 µM (inactive) | 22 µM (inactive) | 37.9 µM (inactive) | 17.8 µM (inactive) | 17.5 µM (inactive) | 15.1 µM (inactive) | 16.3 µM (inactive) | 21.1 µM (inactive) | 16.5 µM (inactive) | 16.4 µM (inactive) | 3.81 µM (inactive) | 17.2 µM (inactive) | 33.1 µM (inactive) | 17.9 µM (inactive) | 19.7 µM (inactive) | 14.4 µM (inactive) | 19.5 µM (inactive) | > 67.9 µM (inactive) |
| CCOC(=O)/C=C(\C(=O)OCC)n1cnc2c(N)ncnc21 | 17.1 µM (inactive) | 2.64 µM (inactive) | 1.91 µM (inactive) | 16.5 µM (inactive) | 15.6 µM (inactive) | 2.92 µM (inactive) | 13.7 µM (inactive) | 2.02 µM (inactive) | 15.2 µM (inactive) | 7.45 µM (inactive) | 3.43 µM (inactive) | 2.77 µM (inactive) | 1.6 µM (inactive) | 4.29 µM (inactive) | 7.94 µM (inactive) | 11.8 µM (inactive) | 13.6 µM (inactive) | 1.99 µM (inactive) | 14.6 µM (inactive) | 22.6 µM (inactive) |
| Cc1sc(/N=C/c2c[nH]c3ccccc23)c(C#N)c1C | 65 µM (inactive) | 27.7 µM (inactive) | 18.2 µM (inactive) | 48 µM (inactive) | 55.6 µM (inactive) | 18.6 µM (inactive) | 54.1 µM (inactive) | 19.7 µM (inactive) | 35.2 µM (inactive) | 45.5 µM (inactive) | 34.6 µM (inactive) | 27.4 µM (inactive) | 27.9 µM (inactive) | 25.9 µM (inactive) | 21.5 µM (inactive) | 32.3 µM (inactive) | > 100 µM (inactive) | > 100 µM (inactive) | 53.7 µM (inactive) | 34.2 µM (inactive) |
